# “Also recorded” adds a separate entry of the source.
# Assays:
# [1] = system: pentylene tetrazole-induced seizures; assay: PTZ chemoconvulsant assay; type: in vivo, mouse
# Source text: We compared anticonvulsant activities of test compounds in male C57BL/6 mice (Charles River) aged 2-3 months. Mice were housed and used according to the recommendations in the Guide for the Care and Use of Laboratory Animals of the National Institutes of Health (NIH Publication, 8th edition, 2011). The study protocol was approved by the Institutional Animal Care and Use Committee of University of California, Irvine, which confirmed that all relevant ethical regulations were adhered to. Chemicals were sourced from Sigma (St. Louis, Mo., USA). A pentylene tetrazole (PTZ) chemoconvulsant assay was used-. […] Following the PTZ injection, mice were caged individually and an observer (GWA) blinded to the drug used recorded, over 20 min, clonic and tonic seizure incidence, and seizure-related mortality.
# We quantified the anticonvulsant activities of (E)-2-dodecenal and tridecanal in male C57BL/6 mice (Charles River, Wilmington, Mass.) aged 2-3 months. The mice were housed and used according to the recommendations in the Guide for the Care and Use of Laboratory Animals of the National Institutes of Health (NIH Publication, 8th edition, 2011). The study protocol was approved by the Institutional Animal Care and Use Committee of University of California, Irvine. The chemicals were sourced from Sigma (St. Louis, Mo., USA). We used a pentylene tetrazole (PTZ) chemoconvulsant assay as we previously described (30). We injected the mice intraperitoneally with (E)-2-dodecenal (2 or 20 mgkg^−1) (with or without 2.5 mgkg^−1 XE991) or tridecanal (20 mgkg^−1) solubilized in PBS, or vehicle control (PBS), and then 30 minutes later we injected mice intraperitoneally with 80 mgkg-PTZ. Following the PTZ injection, the mice were caged individually and an observer (GWA) blinded to the experimental condition timed the latency to first seizure.
# We compared anticonvulsant activities of 3FMSG in male C57BL/6 mice (Charles River) aged 2-3 months. Mice were housed and used according to the recommendations in the Guide for the Care and Use of Laboratory Animals of the National Institutes of Health (NIH Publication, 8th edition, 2011). The study protocol was approved by the Institutional Animal Care and Use Committee of University of California, Irvine, which confirmed that all relevant ethical regulations were adhered to. Chemicals were sourced from Sigma (St. Louis, Mo., USA). We used a pentylene tetrazole (PTZ) chemoconvulsant assay as we previously described^27. Mice were injected intraperitoneally with 3FMSG (5 mg kg^−1) or vehicle control (PBS) and then 30 minutes later injected intraperitoneally with 80 mg kg^−1 PTZ. Following the PTZ injection, mice were caged individually and an observer (GWA) blinded to the drug used recorded seizure activity over 20 minutes.
# [2] = biological target: T1, KCNQ2/3 (Homo sapiens, UniProt O43525+O43526); assay: TEVC of heteromeric KCNQ2/3 channels expressed in Xenopus laevis oocytes; type: cell-based; conditions: for effect on voltage dependence of KCNQ2/3 activation, screen of M. oppositifolius leaf compounds: 100 μM, MTX and palmitic acid 30 μM
# Source text: (§1) cRNA transcripts encoding human KCNA1, KCNQ1, KCNQ2, KCNQ3, KCNQ4, or KCNQ5 were generated by in vitro transcription using the T7 polymerase message machine kit (Thermo Fisher Scientific), after vector linearization, from cDNA sub-cloned into plasmids incorporating X. laevis β-globin 5′ and 3′ UTRs flanking the coding region to enhance translation and cRNA stability. cRNA was quantified by spectrophotometry. Mutant cDNAs were generated by site-directed mutagenesis using a QuikChange kit according to manufacturer's protocol (Stratagene, San Diego, Calif.) and corresponding cRNAs prepared as above. Defolliculated stage V and VI X. laevis oocytes (Ecocyte Bioscience, Austin, Tex.) were injected with Kv channel a subunit cRNAs (10 ng total per oocyte). Oocytes were incubated at 16° C. in Barth's saline solution (Ecocyte) containing penicillin and streptomycin, with daily washing, for 3-5 days prior to two-electrode voltage-clamp (TEVC) recording.
# TEVC recording was performed at room temperature with an OC-725C amplifier (Warner Instruments, Hamden, Conn.) and pClamp10.2 software (Molecular Devices, Sunnyvale, Calif.) 3-5 days after cRNA injection as described in the section above. Oocytes were placed in a small-volume oocyte bath (Warner) and viewed with a dissection microscope. Chemicals were sourced from Sigma. Bath solution was (in mM): 96 NaCl, 4 KCl, 1 MgCl2, 1 CaCl2. 10 HEPES (pH 7.6). […] MTX (DMSO), sorbic acid (ethanol), and glutaconic acid (molecular grade H2O) were stored at −20° C. as 1 M stocks. Oleamide was stored as a 1 mM stock in ethanol at 4° C. Palmitic acid was conjugated with bovine serum albumin as a 1 mM stock and stored at −20° C. All compounds were diluted to working concentrations each experimental day. All compounds were introduced to the recording bath via gravity perfusion at a constant flow of 1 ml/min for 3 min prior to recording. Pipettes were of 1-2 MΩ resistance when filled with 3 M KCl. Currents were recorded in response to pulses between −80 and +40 mV at 20 mV intervals, or a single pulse to +40 mV, from a holding potential of −80 mV, to yield current-voltage relationships, current magnitude, and for quantifying activation rate. TEVC data analysis was performed with Clampfit10.2 (Molecular Devices) and Graphpad Prism software (GraphPad, San Diego, Calif., USA); values are stated as mean±SEM. Normalized tail currents were plotted versus prepulse voltage and fitted with a single Boltzmann function: […]
# (§2) cRNA transcripts encoding human KCNQ2, KCNQ3, KCNQ4, KCNQ5 (Kv7.2-Kv7.5) were generated by in vitro transcription using the T7 polymerase mMessage mMachine kit (Thermo Fisher Scientific), after vector linearization, from cDNA sub-cloned into plasmids incorporating Xenopus laevis β-globin 5′ and 3′ UTRs flanking the coding region to enhance translation and cRNA stability. cRNA was quantified by spectrophotometry. Mutant KCNQ2 and KCNQ3 cDNAs were generated with site-directed mutagenesis using a QuikChange kit according to the manufacturer's protocol (Stratagene, San Diego, Calif.) and corresponding cRNAs prepared as above.
# [3] = biological target: T1, KCNQ2/3; conditions: cited from earlier work
# [4] = biological target: KCNQ5 (Homo sapiens, UniProt Q9NR82); assay: TEVC of homomeric KCNQ5 expressed in Xenopus oocytes; type: cell-based
# Source text: as §1
# (§3) TEVC recording was performed at room temperature with an OC-725C amplifier (Warner Instruments, Hamden, Conn.) and pClamp10.2 software (Molecular Devices, Sunnyvale, Calif.) 3-5 days after cRNA injection as described in the section above. Oocytes were placed in a small-volume oocyte bath (Warner) and viewed with a dissection microscope. Chemicals were sourced from Sigma. Bath solution was (in mM): 96 NaCl, 4 KCl, 1 MgCl2, 1 CaCl2. 10 HEPES (pH 7.6). […] MTX (DMSO), sorbic acid (ethanol), and glutaconic acid (molecular grade H2O) were stored at −20° C. as 1 M stocks. Oleamide was stored as a 1 mM stock in ethanol at 4° C. Palmitic acid was conjugated with bovine serum albumin as a 1 mM stock and stored at −20° C. All compounds were diluted to working concentrations each experimental day. All compounds were introduced to the recording bath via gravity perfusion at a constant flow of 1 ml/min for 3 min prior to recording. Pipettes were of 1-2 MΩ resistance when filled with 3 M KCl. Currents were recorded in response to pulses between −80 and +40 mV at 20 mV intervals, or a single pulse to +40 mV, from a holding potential of −80 mV, to yield current-voltage relationships, current magnitude, and for quantifying activation rate. TEVC data analysis was performed with Clampfit10.2 (Molecular Devices) and Graphpad Prism software (GraphPad, San Diego, Calif., USA); values are stated as mean±SEM. Normalized tail currents were plotted versus prepulse voltage and fitted with a single Boltzmann function:
# (§4) cRNA transcripts encoding human KCNQ2, KCNQ3, KCNQ4, KCNQ5 (Kv7.2-Kv7.5) were generated by in vitro transcription using the T7 polymerase mMessage mMachine kit (Thermo Fisher Scientific), after vector linearization, from cDNA sub-cloned into plasmids incorporating Xenopus laevis β-globin 5′ and 3′ UTRs flanking the coding region to enhance translation and cRNA stability. cRNA was quantified by spectrophotometry. Mutant KCNQ2 and KCNQ3 cDNAs were generated with site-directed mutagenesis using a QuikChange kit according to the manufacturer's protocol (Stratagene, San Diego, Calif.) and corresponding cRNAs prepared as above. Defolliculated stage V and VI Xenopus laevis oocytes (Ecocyte Bioscience, Austin, Tex.) were injected with KCNQ channel α subunit cRNAs (5-10 ng). The oocytes were incubated at 16° C. in Barth's saline solution (Ecocyte) containing penicillin and streptomycin, with daily washing, for 2-5 days prior to two-electrode voltage-clamp (TEVC) recording.
# (§5) TEVC recording was performed at room temperature using a OC-725C amplifier (Warner Instruments, Hamden, Conn.) and pClamp8 software (Molecular Devices, Sunnyvale, Calif.) 2-5 days after cRNA injection as described in the section above. The oocytes were placed in a small-volume oocyte bath (Warner) and viewed with a dissection microscope. Unless otherwise stated, chemicals were sourced from Sigma. Bath solution was (in mM): 96 NaCl, 4 KCl, 1 MgCl2, 1 CaCl2, 10 HEPES (pH 7.6).
# [5] = biological target: KCNQ1 (Homo sapiens, UniProt P51787); assay: TEVC of homomeric KCNQ1 expressed in Xenopus oocytes; type: cell-based; conditions: Example 4; read-out: EC50, ΔV0.5act of KCNQ1
# Method: Oocytes were placed in a small-volume oocyte bath (Warner) and viewed with a dissection microscope. Chemicals were sourced from Sigma. Bath solution was (in mM): 96 NaCl, 4 KCl, 1 MgCl2, 1 CaCl2. 10 HEPES (pH 7.6). […] MTX (DMSO), sorbic acid (ethanol), and glutaconic acid (molecular grade H2O) were stored at −20° C. as 1 M stocks. Oleamide was stored as a 1 mM stock in ethanol at 4° C. Palmitic acid was conjugated with bovine serum albumin as a 1 mM stock and stored at −20° C. All compounds were diluted to working concentrations each experimental day. All compounds were introduced to the recording bath via gravity perfusion at a constant flow of 1 ml/min for 3 min prior to recording. Pipettes were of 1-2 MΩ resistance when filled with 3 M KCl. Currents were recorded in response to pulses between −80 and +40 mV at 20 mV intervals, or a single pulse to +40 mV, from a holding potential of −80 mV, to yield current-voltage relationships, current magnitude, and for quantifying activation rate. […]
# [6] = biological target: KCNQ3* (KCNQ3-A315T) (Homo sapiens, UniProt O43525, A315T); assay: TEVC of homomeric KCNQ3* expressed in Xenopus oocytes; type: cell-based
# Source text: as §1, §3, §4, §5
# [7] = biological target: KCNQ4 (Homo sapiens, UniProt P56696); assay: TEVC of homomeric KCNQ4 expressed in Xenopus oocytes; type: cell-based
# Source text: as §1, §3, §4, §5
# [8] = biological target: KCNQ2 (Homo sapiens, UniProt O43526); assay: TEVC of homomeric KCNQ2 expressed in Xenopus oocytes; type: cell-based; conditions: Example 4; read-out: EC50, ΔV0.5act of KCNQ2
# Source text: as §1, §3, §4, §5
# [9] = biological target: KCNQ2-W236L/KCNQ3-W265L (Homo sapiens, UniProt O43525+O43526, W236L/W265L); assay: TEVC of double-mutant WL/WL KCNQ2/3 channels; type: cell-based
# Source text: as §1
# TEVC recording was performed at room temperature with an OC-725C amplifier (Warner Instruments, Hamden, Conn.) and pClamp10.2 software (Molecular Devices, Sunnyvale, Calif.) 3-5 days after cRNA injection as described in the section above. Oocytes were placed in a small-volume oocyte bath (Warner) and viewed with a dissection microscope. Chemicals were sourced from Sigma. Bath solution was (in mM): 96 NaCl, 4 KCl, 1 MgCl2, 1 CaCl2. 10 HEPES (pH 7.6). […] Currents were recorded in response to pulses between −80 and +40 mV at 20 mV intervals, or a single pulse to +40 mV, from a holding potential of −80 mV, to yield current-voltage relationships, current magnitude, and for quantifying activation rate. […]
# as §2, with “Mutant KCNQ2 and KCNQ3 cDNAs were generated with site-directed mutagenesis using a QuikChange kit according to the manufacturer's protocol (Stratagene, San Diego, Calif.) and corresponding cRNAs prepared as above.” left out
smiles,measurement,setting,value
"CCCCCCCCCCCCC=O [tridecanal, reference compound]",latency to first PTZ-induced seizure,[1]; 20 mgkg−1 i.p.,no effect
same,effect on KCNQ2/3 activity (in words),[2],KCNQ2/3-inactive
O=C(O)C=CCC(=O)O [glutaconic acid],"effect on voltage dependence of KCNQ2/3 activation, screen of M. oppositifolius leaf compounds",[2],negative-shifted
CCCCC(=O)O [valeric acid],KCNQ2/3 activation (previously found),[3],inactive
CCCCCCCC/C=C\CCCCCCCC(N)=O [oleamide],effect on KCNQ2/3 activity (in words),[2],slightly increased KCNQ2/3 currents at higher voltages
"NC(C(=O)O)c1ccc(F)cc1 (stereo not drawn) [4FPG, 4-(fluorophenyl)glycine]",effect on KCNQ5 (in words),[4],no effects
same,EC50,[5],0.09 ± 0.02 µM
same,effect on KCNQ3* (in words),[6],no effects
same,EC50,"[7]; Example 4, read-out: EC50, ΔV0.5act of KCNQ4",0.049 ± 0.012 µM
same,EC50,[8],0.069 ± 0.031 µM
same,EC50,"[2]; Example 4, read-out: EC50, shift in voltage dependence of KCNQ2/3 activation (ΔV0.5act)",0.061 ± 0.042 µM
O=C1c2ccccc2C(Cc2ccncc2)(Cc2ccncc2)c2ccccc21 [XE991],latency to first PTZ-induced seizure,[1]; XE991 2.5 mgkg−1 with (E)-2-dodecenal 20 mgkg−1,eliminated the protective effect
same,inhibition of activator-augmented KCNQ2/3 current,[2]; after wash-in of MTX or gabapentin,rapidly inhibited; also recorded: completely inhibited
"NCC(O)CC(=O)O (stereo not drawn) [GABOB, γ-Amino-β-hydroxybutyric acid]",effect of co-applied compound (100 μM) on KCNQ2/3 activation by MTX (30 μM) or IVA (500 μM),[2],only partially diminishes; also recorded: highly effective at competing out
CC(C)C[C@H](CN)CC(=O)O [pregabalin],concentration from which KCNQ2/3 is inhibited,[2],≥ 10 µM
same,effect on KCNQ2/3 activity (in words),[2],does not activate; also recorded: no augmenting effect
same,effect on KCNQ2/3 gating kinetics,[2],no effects
same,shift of membrane potential (EM) of KCNQ2/3-expressing oocytes,[2]; unclamped oocytes,failed to shift
Oc1ccccc1S [2-mercaptophenol],effect on WL/WL KCNQ2/3 (in words),[9],insensitive
same,concentration from which KCNQ2/3 is inhibited,[2],~100 µM
same,effect of co-applied compound (100 μM) on KCNQ2/3 activation by MTX (30 μM) or IVA (500 μM),[2],did not alter
same,effect on KCNQ2/3 activity (in words),[2],inhibits; also recorded: inhibitory at higher doses
same,"effect on voltage dependence of KCNQ2/3 activation, screen of M. oppositifolius leaf compounds",[2],positive-shifted
"NCCCC(=O)O [GABA, γ-aminobutyric acid, reference compound]",effect on KCNQ4 (in words),[7],unable to open
CCCCCCCCCCCCCCCC(=O)O [palmitic acid],"effect on voltage dependence of KCNQ2/3 activation, screen of M. oppositifolius leaf compounds",[2],negative-shifted
O=C(Nc1cnc(Cl)nc1)c1ccc(F)c(F)c1 [ICA-069673],selectivity KCNQ2/3 versus KCNQ3/5 activation,[3],20 fold
O=C(Nc1ccc(Cl)nc1)c1ccc(F)c(F)c1 [ICA-27243],potency at opening KCNQ2/3 versus KCNQ4,[3],> 20 fold
